Laboratory results published in US20040005537A1, “Method of identifying toxic agents using differential gene expression” (priority 2000, published 2004).

Key:
[1] = grouping used to generate the distinguishing gene profiles; cited from earlier work
rat heart tissue = assay: GENECALLING differential gene expression analysis after dosing of serotonin modulating agents; type: in vivo, Sprague Dawley rats
Protocol: Control animals received sterile water or canola oil. The animals were sacrificed 24 hours following the last dose. Liver tissue was dissected from the animals, and total RNA was recovered from the dissected tissue. cDNA was prepared and the resulting samples were processed through using GENECALLING™ differential expression analysis as described in U.S. Pat. No. 5,871,697 and in Shimkets et al., Nature Biotechnology 17:798-803 (1999). The contents of these patents and publications are incorporated herein by reference in their entirety.
Thousands of gene fragments were initially found to be differentially expressed in rat heart tissue in response to serotonin modulating agents in. Genes fragments whose expression levels were modulated greater than ±1.5-fold were selected for further analysis.
Column 6 of Table 1, entitled “Function”, lists the type of classification assigned for the protein, based on its function. The 210 single nucleic acid sequences identified herein, are referred to herein as CARDIOTOX 1-210.

## CN1C[C@H](C(=O)N[C@]2(C)O[C@@]3(O)[C@@H]4CCCN4C(=O)[C@H](Cc4ccccc4)N3C2=O)C[C@@H]2c3cccc4[nH]cc(c34)C[C@H]21 [dihydroergotamine]
[1]
  classification as cardiotoxic or noncardiotoxic serotonin modulating agent: cardiotoxic
Rat heart tissue; CARDIOTOX 1
  Effects on Transcription Level: Novel gene fragment, 524 bp, 86% SI to mouse F-box protein FBX6b [AF176526]: +1.3 fold
Rat heart tissue; CARDIOTOX 2
  Effects on Transcription Level: Novel gene fragment, 306 bp, 91% SI to mouse low density lipoprotein receptor related protein 4 [AB013874]: −1.4 fold
Rat heart tissue; CARDIOTOX 3
  Effects on Transcription Level: Novel gene fragment, 540 bp, 97% SI to mouse skeletal muscle alpha-actin [X03766]: +1.2 fold
Rat heart tissue; CARDIOTOX 4
  Effects on Transcription Level: Novel gene fragment, 80 bp: −1.4 fold
Rat heart tissue; CARDIOTOX 5
  Effects on Transcription Level: Novel gene fragment, 957 bp, 99% SI to kidney injury associated moleculer HW036 [V80591]: −1.4 fold
Rat heart tissue; CARDIOTOX 6
  Effects on Transcription Level: Novel gene fragment, 282 bp, 85% SI to human KIAA1515 protein [AB040948]: −1.2 fold
Rat heart tissue; CARDIOTOX 7
  Effects on Transcription Level: Novel gene fragment, 405 bp, 88% SI to human 2-oxoglutarate dehydrogenase [D10523]: +1.3 fold
Rat heart tissue; CARDIOTOX 8, GenBank AB010743
  Effects on Transcription Level: UCP2: +1.0 fold
Rat heart tissue; CARDIOTOX 9, GenBank J03753
  Effects on Transcription Level: Plasma membrane Ca2 + ATPase-isoform 1: −1.4 fold
Rat heart tissue; CARDIOTOX 10
  Effects on Transcription Level: Novel gene fragment, 242 bp, 97% SI to mouse HSP86 heat-shock protein [X16857]: +1.0 fold
Rat heart tissue; CARDIOTOX 11
  Effects on Transcription Level: Novel gene fragment, 280 bp, 65% SI to human TRF1-interacting, ankyrin-related ADP-ribose polymerase [AF082556]: +1.3 fold
Rat heart tissue; CARDIOTOX 12
  Effects on Transcription Level: Novel gene fragment, 348 bp, 88% SI to mouse Sec61 protein complex gamma subunit [U11027]: +1.4 fold
Rat heart tissue; CARDIOTOX 13
  Effects on Transcription Level: Novel gene fragment 553 bp, 93% SI to mouse Sid329 [AB024984]: +1.2 fold
Rat heart tissue; CARDIOTOX 14, GenBank AB020759
  Effects on Transcription Level: Kruppel-like transcription factor: +1.2 fold
Rat heart tissue; CARDIOTOX 15, GenBank X62166
  Effects on Transcription Level: Ribosomal protein L3: +1.4 fold
Rat heart tissue; CARDIOTOX 16, GenBank S78556
  Effects on Transcription Level: Glucose-regulated protein (GRP) 75: +1.2 fold
Rat heart tissue; CARDIOTOX 17, GenBank M14050
  Effects on Transcription Level: Immunoglobulin heavy chain binding protein (BiP): +1.2 fold
Rat heart tissue; CARDIOTOX 18, GenBank X56541
  Effects on Transcription Level: Membrane-spannining proteoglycan NG2: −1.4 fold
Rat heart tissue; CARDIOTOX 19
  Effects on Transcription Level: Novel gene fragment, 1294 bp, 96% SI to mouse Sui 1 (elF) homolog [AF129888]: +1.1 fold
Rat heart tissue; CARDIOTOX 20
  Effects on Transcription Level: Novel gene fragment, 723 bp, 85% SI to human translation initiation factor elF3 p40 subunit [U54559]: +1.2 fold
Rat heart tissue; CARDIOTOX 21
  Effects on Transcription Level: Novel gene fragment, 1324 bp, 76% SI to human flavoprotein subunit of complex II [D30648]: +1.3 fold
Rat heart tissue; CARDIOTOX 22
  Effects on Transcription Level: Novel gene fragment, 852 bp, 81% SI to human vacuolar proton-ATPase subunit M9.2 [Y15286]: +1.4 fold
Rat heart tissue; CARDIOTOX 23
  Effects on Transcription Level: Novel gene fragment, 178 bp, 91% SI to mouse myosin light chain-2 isoform MLC-2a [S70785]: +1.2 fold
Rat heart tissue; CARDIOTOX 24
  Effects on Transcription Level: Novel gene fragment, 167 bp, 90% SI to mouse Rab20 [X80332]: +1.2 fold
Rat heart tissue; CARDIOTOX 25
  Effects on Transcription Level: Novel gene fragment, 1070 bp, 80% SI to human muscle-specific protein [AF249873]: +1.2 fold
Rat heart tissue; CARDIOTOX 26
  Effects on Transcription Level: Novel gene fragment, 1143 bp, 82% SI to human sarcoma amplified sequence (SAS) [U01160]: +1.4 fold
Rat heart tissue; CARDIOTOX 27
  Effects on Transcription Level: Novel gene fragment, 74 bp,75% SI to human secreted protein [X30160] (from patent database)/[X97578] (from patent database)/potential cytokine): +1.4 fold
Rat heart tissue; CARDIOTOX 28
  Effects on Transcription Level: Novel gene fragment, 408 bp, 90% SI to human CGI-07 protein [AF132941]: +1.2 fold
Rat heart tissue; CARDIOTOX 29
  Effects on Transcription Level: Novel gene fragment, 618 bp, 95% SI to rat progression related cDNA, ZNPE-120 3′ end partial sequence [patent database X90805]: +1.0 fold
Rat heart tissue; CARDIOTOX 30
  Effects on Transcription Level: Novel gene fragment, 717 bp: +1.2 fold
Rat heart tissue; CARDIOTOX 31
  Effects on Transcription Level: Novel gene fragment, 546 bp: −1.0 fold
Rat heart tissue; CARDIOTOX 32
  Effects on Transcription Level: Novel gene fragment, 920 bp, 91% SI to human HSPC061 [AF161546]: +1.3 fold
Rat heart tissue; CARDIOTOX 33
  Effects on Transcription Level: Novel gene fragment, 203 bp, 92% SI to rabbit sarcoplasmic reticulum glycoprotein [J04480]: −1.1 fold
Rat heart tissue; CARDIOTOX 34
  Effects on Transcription Level: Novel gene fragment, 178 bp, 68% SI to mouse IgG receptor (beta-Fc-gamma-RII)[M63159]: +1.2 fold
Rat heart tissue; CARDIOTOX 35, GenBank X87107
  Effects on Transcription Level: Ribosomal protein L6: +1.4 fold
Rat heart tissue; CARDIOTOX 36, GenBank U31935
  Effects on Transcription Level: CAP2 protein (adenylyl cyclase-associated protein 2): +1.2 fold
Rat heart tissue; CARDIOTOX 37, GenBank M63837
  Effects on Transcription Level: Alpha-platelet-derived growth factor receptor: −1.0 fold
Rat heart tissue; CARDIOTOX 38, GenBank X74402
  Effects on Transcription Level: Rab GD1 alpha protein: −1.1 fold
Rat heart tissue; CARDIOTOX 39, GenBank Y08355
  Effects on Transcription Level: PKC-zeta-interacting protein: +1.2 fold
Rat heart tissue; CARDIOTOX 40, GenBank X65198
  Effects on Transcription Level: ERK or MAP kinase: +1.4 fold
Rat heart tissue; CARDIOTOX 41, GenBank U37486
  Effects on Transcription Level: Peroxisomal multifunctional enzyme type II: +1.2 fold
Rat heart tissue; CARDIOTOX 42, GenBank D30035
  Effects on Transcription Level: HBP23 (heme-binding protein 23 kDa): +1.3 fold
Rat heart tissue; CARDIOTOX 43, GenBank U90725
  Effects on Transcription Level: Caveolae-associated protein: +1.3 fold
Rat heart tissue; CARDIOTOX 44, GenBank AF025506
  Effects on Transcription Level: Prenylated rab acceptor 1 (PRA1): +1.0 fold
Rat heart tissue; CARDIOTOX 45
  Effects on Transcription Level: Novel gene fragment, 337 bp, 88% SI to rabbit cardiac ryanodine receptor (RyR-2)[U50465]: −2.5 fold
Rat heart tissue; CARDIOTOX 46
  Effects on Transcription Level: Novel gene fragment, 81 bp, 85% SI to human titin [X90568]: −2.8 fold
Rat heart tissue; CARDIOTOX 47
  Effects on Transcription Level: Novel gene fragment, 428 bp, 86% SI to human titin [X90568]: −1.7 fold
Rat heart tissue; CARDIOTOX 48
  Effects on Transcription Level: Novel gene fragment, 374 bp, 88% SI to human titin [X90568]: −5.5 fold
Rat heart tissue; CARDIOTOX 49
  Effects on Transcription Level: Novel gene fragment, 428 bp, 85% SI to human titin [90568]: −3.8 fold
Rat heart tissue; CARDIOTOX 50
  Effects on Transcription Level: Novel gene fragment, 1216 bp, 93% SI to mouse mircotubule-associated protein (MAP) 1B protein [AF115776]: −1.5 fold
Rat heart tissue; CARDIOTOX 51
  Effects on Transcription Level: Novel gene fragment, 1115 bp, 83% SI to human KIAA0549 protein [AB011121]: −1.5 fold
Rat heart tissue; CARDIOTOX 52
  Effects on Transcription Level: Novel gene fragment, 153 bp: −1.7 fold
Rat heart tissue; CARDIOTOX 53
  Effects on Transcription Level: Novel gene fragment, 89 bp, 93% SI to human putative glialblastoma cell differentiation-related protein (GBDR1) [AF068195]: +1.5 fold
Rat heart tissue; CARDIOTOX 54, GenBank U61266
  Effects on Transcription Level: Rho-associated kinase beta: −2.6 fold
Rat heart tissue; CARDIOTOX 55, GenBank D13062
  Effects on Transcription Level: Adenylate kinase 3: +1.5 fold
Rat heart tissue; CARDIOTOX 56, GenBank AF049878
  Effects on Transcription Level: Amyloid beta-peptide binding protein: +1.7 fold
Rat heart tissue; CARDIOTOX 57, GenBank D12771
  Effects on Transcription Level: Mitochondrial adenine nuleotide translocator: +1.8 fold
Rat heart tissue; CARDIOTOX 58
  Effects on Transcription Level: Novel gene fragment, 710 bp, 94% SI to mouse chromatin structural protein homolog Supt5 hp (Supt5 h)[U88539]: +2.8 fold
Rat heart tissue; CARDIOTOX 60
  Effects on Transcription Level: Novel gene fragment, 186 bp, 66% SI to human N-acetylglucosaminyltransferase 1 (GlcNAc-TI)[M55621]: −1.5 fold
Rat heart tissue; CARDIOTOX 61
  Effects on Transcription Level: Novel gene fragment, 238 bp, 95% SI to mouse MAP kinase-activated protein kinase 2 [X76850]: −1.5 fold
Rat heart tissue; CARDIOTOX 62
  Effects on Transcription Level: Novel gene fragment, 173 bp, 70% SI to G protein-coupled receptor kinase GRK4 [X97568]: −7.2 fold
Rat heart tissue; CARDIOTOX 63
  Effects on Transcription Level: Novel gene fragment, 133 bp, 77% SI to human apoptosis related protein hSARP3 [patent database: V19114]: −2.5 fold
Rat heart tissue; CARDIOTOX 64
  Effects on Transcription Level: Novel gene fragment, 477 bp, 98% SI to peroxisomal phytanoyl-CoA hydroxylase (PHYH) [AF121345]: +8.0 fold
Rat heart tissue; CARDIOTOX 65
  Effects on Transcription Level: Novel gene fragment, 413 bp, 95% SI to mouse dihydrolipoamide dehydrogenase (Dld) [U73445]: +2.2 fold
Rat heart tissue; CARDIOTOX 66
  Effects on Transcription Level: Novel gene fragment, 726 bp, 76% SI to human succinate dehydrogenase flavoprotein subunit (SDH) [L21936]: −3.6 fold
Rat heart tissue; CARDIOTOX 67
  Effects on Transcription Level: Novel gene fragment, 440 bp, 92% SI to mouse cytochrome c oxidase Vllc [X52940]: +4.1 fold
Rat heart tissue; CARDIOTOX 68
  Effects on Transcription Level: Novel gene fragment, 276 bp, 80% SI to human titin [X90568]: −6.5 fold
Rat heart tissue; CARDIOTOX 69
  Effects on Transcription Level: Novel gene fragment, 149 bp, 70% SI to human titin [X90568]: +8.0 fold
